Experimental data as given in PubChem BioAssay (NCI).
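A five-concentration, 48-hour dose response in 96-well plates underlies each endpoint, interpolated linearly between surrounding concentrations. At the GI50, growth is halved. TGI marks complete inhibition of growth.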

Columns and labels:
Test in all cases: NCI-60 cell line screen, 48 h
RPMI-8226 leukemia = system: RPMI-8226 leukemia
EKVX NSCLC = system: EKVX NSCLC
IGROV1 ovarian = system: IGROV1 ovarian
DU-145 prostate = system: DU-145 prostate
UACC-257 melanoma = system: UACC-257 melanoma
HCT-15 colon = system: HCT-15 colon
NCI-H23 lung = system: NCI-H23 lung
MDA-MB-435 = system: MDA-MB-435
SK-OV-3 ovarian = system: SK-OV-3 ovarian
HL-60(TB) leukemia = system: HL-60(TB) leukemia

SMILES | TGI (RPMI-8226 leukemia) [µM] | TGI (EKVX NSCLC) [µM] | TGI (IGROV1 ovarian) [µM] | TGI (DU-145 prostate) [µM] | TGI (UACC-257 melanoma) [µM] | TGI (HCT-15 colon) [µM] | TGI (NCI-H23 lung) [µM] | TGI (MDA-MB-435) [µM] | TGI (SK-OV-3 ovarian) [µM] | GI50 (RPMI-8226 leukemia) [µM] | GI50 (IGROV1 ovarian) [µM] | GI50 (DU-145 prostate) [µM] | GI50 (UACC-257 melanoma) [µM] | GI50 (HL-60(TB) leukemia) [µM] | TGI (HL-60(TB) leukemia) [µM] | GI50 (HCT-15 colon) [µM] | GI50 (NCI-H23 lung) [µM] | GI50 (MDA-MB-435) [µM] | GI50 (SK-OV-3 ovarian) [µM] | GI50 (EKVX NSCLC) [µM]
O=C1C=CC(O)C2C1CC13SSC4(CC5C(=O)C=CC(O)C5N4C1=O)C(=O)N23 (centres undefined) | 0.093 | 2.33 | 3.43 | 1.07 | 0.768 | 0.794 | 0.393 | 0.434 | 14.1 | – | – | – | – | – | – | – | – | – | – | –
Oc1ccc(Cl)cc1CNc1nc2ccccc2[nH]1 | 49.5 | – | 41.3 | 32.4 | 29.4 | 26.1 | 33.1 | 26.2 | 34.8 | 10 | 18.3 | 16.2 | 14.7 | 19.8 | > 100 | 11.5 | 14.3 | 13.2 | 16.8 | –
CCOC(=O)c1c(C)c(C)n2c1NC(=O)C2 | > 100 | > 100 | > 100 | 64.3 | > 100 | > 100 | > 68.5 | > 100 | > 100 | – | – | – | – | – | > 100 | – | – | – | – | –
Cc1cc2c(cc1N)C(C)C1(CCC(=O)N2Cc2ccccc2)OCCO1 (centres undefined) | > 100 | > 100 | > 100 | > 100 | > 100 | > 100 | > 100 | > 100 | > 100 | – | – | – | – | – | – | – | – | – | – | –
COc1ccc(CCNCCCC2c3ccccc3-c3ccccc32)cc1OC | 22 | 30.8 | 26.8 | 28.9 | 28.1 | 29 | 28.9 | 28.3 | 32.9 | – | – | – | – | – | 47.7 | – | – | – | – | –
C=C1c2c(Cl)ccc(O)c2C(O)=C2C(=O)[C@]3(O)C(O)=C(C(N)=O)C(=O)[C@@H](N(C)C)[C@@H]3[C@@H](O)[C@H]12 | 4.25 | 13 | 5.22 | 9.15 | 3.61 | > 50 | 4.14 | 7.97 | 3.2 | 1.1 | 1.03 | 1.62 | 0.888 | 1.22 | 3.57 | 1.44 | 1.08 | 1.53 | 1 | 1.51
CN(/N=N/c1nc(OCc2ccccc2)c2[nH]cnc2n1)C(=O)Oc1ccc([N+](=O)[O-])cc1 | > 50 | 35.9 | 31.2 | 19.5 | > 50 | 20 | 16.4 | 39.8 | 28.6 | 9.12 | 12.2 | 9.02 | 39 | 11.9 | > 50 | 8.9 | 8.44 | 12.4 | 10.4 | 11.5
C=CCCCc1ccc(C(O)CCCCCCCCCCCC)o1 (centres undefined) | 44.7 | 37.5 | 44.9 | 35.4 | 48.2 | 30.3 | 52.5 | 58.7 | 37.2 | 19.2 | 19.5 | 19 | 21.8 | – | – | 15.5 | 22.3 | 26.2 | 16.4 | 20.1
